This passage reports T/C results from PubChem BioAssay AID330 (DTP/NCI, 2004).

This assay relates to P388 leukemia ip, CD2F1 mice, survival T/C. The assay is described as follows: NCI In Vivo Anticancer Drug Screen. Data for tumor model P388 Leukemia (intraperitoneal) in CD2F1 (CDF1) mice. The note with it: endpoint: median survival time, higher = longer survival. An outline of the steps: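 Mice carrying the transplanted tumor received test compound or vehicle. Survival was recorded in each group, and the value is the treated-group measurement divided by that of the vehicle-treated control group.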

The mark [1] stands for this setting: dose: 60.0 mg/kg/injection, schedule: Q01DX005 (ip), vehicle: saline with Tween-80.
[2] abbreviates: dose: 120.0 mg/kg/injection, schedule: Q01DX005 (ip), vehicle: saline with Tween-80.
[3] abbreviates: dose: 240.0 mg/kg/injection, schedule: Q01DX005 (ip), vehicle: saline with Tween-80.
Where [4] appears, read: dose: 50.0 mg/kg/injection, schedule: Q01DX009 (ip), vehicle: saline.
Setting [5] is: dose: 50.0 mg/kg/injection, schedule: Q01DX005 (ip), vehicle: saline with Tween-80.
Where [6] appears, read: dose: 50.0 mg/kg/injection, schedule: Q01DX009 (ip), vehicle: saline with Tween-80.
[7] abbreviates: dose: 100.0 mg/kg/injection, schedule: Q01DX009 (ip), vehicle: saline with Tween-80.
Where [8] appears, read: dose: 200.0 mg/kg/injection, schedule: Q01DX009 (ip), vehicle: saline with Tween-80.
Where [9] appears, read: dose: 25.0 mg/kg/injection, schedule: Q01DX005 (ip), vehicle: Klucel (hydroxypropylcellulose) (HPC).
[10] abbreviates: dose: 50.0 mg/kg/injection, schedule: Q01DX005 (ip), vehicle: Klucel (hydroxypropylcellulose) (HPC).
The mark [11] stands for this setting: dose: 100.0 mg/kg/injection, schedule: Q01DX005 (ip), vehicle: Klucel (hydroxypropylcellulose) (HPC).
[12] abbreviates: dose: 200.0 mg/kg/injection, schedule: Q01DX005 (ip), vehicle: Klucel (hydroxypropylcellulose) (HPC).

Where “and” joins values, the source holds several entries; their conditions need not be identical. Equal values may be shown once. Toxic doses and inconclusive results are not listed.

Take `C1CCC(C2CCCC[N-]2)[N-]C1.O.O.[Pd+2]` (configuration not stated): the T/C is 102 % of control (dose: 6.25 mg/kg/injection, schedule: Q04DX003 (ip), vehicle: Klucel (hydroxypropylcellulose) (HPC)); 96 % of control (dose: 6.25 mg/kg/injection, schedule: Q04DX003 (ip), vehicle: saline with Tween-80); 102 % of control (dose: 12.5 mg/kg/injection, schedule: Q04DX003 (ip), vehicle: Klucel (hydroxypropylcellulose) (HPC)); 104 % of control (dose: 12.5 mg/kg/injection, schedule: Q04DX003 (ip), vehicle: saline with Tween-80); 102 % of control (dose: 25.0 mg/kg/injection, schedule: Q04DX003 (ip), vehicle: Klucel (hydroxypropylcellulose) (HPC)); 98 % of control and 105 % of control (dose: 25.0 mg/kg/injection, schedule: Q04DX003 (ip), vehicle: saline with Tween-80). Besides, the T/C (dose: 50.0 mg/kg/injection, schedule: Q04DX003 (ip), vehicle: Klucel (hydroxypropylcellulose) (HPC)) is 101 % of control; the T/C (dose: 50.0 mg/kg/injection, schedule: Q04DX003 (ip), vehicle: saline with Tween-80) was 96 % of control; the T/C (dose: 100.0 mg/kg/injection, schedule: Q04DX003 (ip), vehicle: saline with Tween-80) was 97 % of control.
As to `[Cu+2].[O-]/N=C/c1ccc(O)c(O)c1[O-].[O-]/N=C/c1ccc(O)c(O)c1[O-]`, the T/C under setting [1] is 91 % of control, the T/C under setting [2] is 87 % of control and the T/C under setting [3] is 89 % of control.
Regarding `O=C1C=CC2=C3c4cc(O)c(O)cc4CC3(O)COC2=C1O` (configuration not stated), the T/C by setting is: (dose: 6.25 mg/kg/injection, schedule: Q01DX009 (ip), vehicle: saline) 102 % of control; (dose: 12.5 mg/kg/injection, schedule: Q01DX009 (ip), vehicle: saline) 108 % of control; (dose: 25.0 mg/kg/injection, schedule: Q01DX009 (ip), vehicle: saline) 118 % of control; under setting [4], 108 % of control.
For `CC(=O)NS(=O)(=O)c1ccc(NCc2c3ccccc3nc3cc(Cl)ccc23)cc1`, the T/C is 114 % of control under setting [1], 102 % of control under setting [2] and 105 % of control under setting [3].
Take `C=C1C(=O)CCC1/C=C\C` (configuration not stated): the T/C is, setting by setting: (dose: 12.5 mg/kg/injection, schedule: Q01DX005 (ip), vehicle: saline with Tween-80) 111 % of control; (dose: 25.0 mg/kg/injection, schedule: Q01DX005 (ip), vehicle: saline with Tween-80) 110 % of control; under setting [5], 99 % of control.
In the case of `CC(=NC(C)(C)C)Nc1ccc(Cl)cc1`, the T/C by setting is: under setting [6], 103 % of control; under setting [7], 109 % of control.
As for `CCCCOC(=O)OOC(C)(C)C`, the T/C by setting is: under setting [6], 110 % of control; under setting [7], 110 % of control; under setting [8], 110 % of control.
In the case of `CC(=O)C(CCCn1c(=O)c2c(ncn2C)n(C)c1=O)C(C)=O`, the T/C under setting [9] is 102 % of control, the T/C under setting [10] was 105 % of control and the T/C under setting [11] was 98 % of control.
As for `Cc1cc(=O)n2[nH]c(-c3ccco3)cc2n1`, the T/C was 104 % of control under setting [1], 104 % of control under setting [2] and 105 % of control under setting [3].
Consider `Cc1c(-c2ccccc2)n(O)c(-c2ccc(N(C)C)cc2)[n+]1[O-]`, for which the T/C under setting [6] is 98 % of control, the T/C under setting [7] was 92 % of control and the T/C under setting [8] is 91 % of control.
`O=C(NN1C(=O)CSC1c1ccccc1F)c1ccncc1` (configuration not stated): the T/C was 93 % of control under setting [5]; 108 % of control (dose: 100.0 mg/kg/injection, schedule: Q01DX005 (ip), vehicle: saline with Tween-80); 97 % of control (dose: 200.0 mg/kg/injection, schedule: Q01DX005 (ip), vehicle: saline with Tween-80).
Consider `O=C1c2ccccc2C(=O)N1CCS(=O)(=O)Cl`, for which the T/C is 100 % of control (dose: 12.5 mg/kg/injection, schedule: Q01DX009 (ip), vehicle: saline with Tween-80); 106 % of control (dose: 25.0 mg/kg/injection, schedule: Q01DX009 (ip), vehicle: saline with Tween-80); 114 % of control under setting [6]; 117 % of control under setting [7].
Regarding `Cc1ccc(OCCCCBr)c(Br)c1`, the T/C is, setting by setting: under setting [10], 105 % of control; under setting [11], 101 % of control; under setting [12], 97 % of control.
Regarding `CC(=O)OCC1OC(Nc2[nH]c(=O)n(C)c(=O)c2C(=O)CCl)C(OC(C)=O)C(OC(C)=O)C1OC(C)=O` (configuration not stated), the T/C runs as follows: under setting [1], 114 % of control; under setting [2], 105 % of control; under setting [3], 124 % of control.
Consider `CCC(C)Nc1ccc(N)cc1` (configuration not stated), for which the T/C was 115 % of control (dose: 0.1 mg/kg/injection, schedule: Q01DX009 (ip), vehicle: carboxymethylcellulose (CMC)); 95 % of control (dose: 0.39 mg/kg/injection, schedule: Q01DX009 (ip), vehicle: Klucel (hydroxypropylcellulose) (HPC)); 111 % of control (dose: 0.4 mg/kg/injection, schedule: Q01DX009 (ip), vehicle: carboxymethylcellulose (CMC)); 102 % of control (dose: 0.78 mg/kg/injection, schedule: Q01DX009 (ip), vehicle: Klucel (hydroxypropylcellulose) (HPC)); 104 % of control and 110 % of control (dose: 1.56 mg/kg/injection, schedule: Q01DX009 (ip), vehicle: Klucel (hydroxypropylcellulose) (HPC)); 100 % of control and 119 % of control (dose: 3.12 mg/kg/injection, schedule: Q01DX009 (ip), vehicle: Klucel (hydroxypropylcellulose) (HPC)). Moreover, the T/C (dose: 6.25 mg/kg/injection, schedule: Q01DX009 (ip), vehicle: Klucel (hydroxypropylcellulose) (HPC)) is 108 % of control and 112 % of control.
On to `CN(C(=S=O)c1ccccc1)c1ccccc1`, for which the T/C is 109 % of control under setting [4]; 104 % of control (dose: 100.0 mg/kg/injection, schedule: Q01DX009 (ip), vehicle: saline); 106 % of control (dose: 200.0 mg/kg/injection, schedule: Q01DX009 (ip), vehicle: saline).
With `CCC1C2CC3C4N(C)c5ccccc5C45CC(C2C5O)N3C1O` (configuration not stated), the T/C (dose: 0.31 mg/kg/injection, schedule: Q01DX009 (ip), vehicle: saline) was 102 % of control and 106 % of control; the T/C (dose: 0.62 mg/kg/injection, schedule: Q01DX009 (ip), vehicle: saline) was 99 % of control and 106 % of control and 121 % of control; the T/C (dose: 1.25 mg/kg/injection, schedule: Q01DX009 (ip), vehicle: saline) was 102 % of control and 106 % of control and 95 % of control; the T/C (dose: 2.5 mg/kg/injection, schedule: Q01DX009 (ip), vehicle: saline) was 99 % of control and 105 % of control (2×); the T/C (dose: 5.0 mg/kg/injection, schedule: Q01DX009 (ip), vehicle: saline) is 102 % of control; the T/C (dose: 10.0 mg/kg/injection, schedule: Q01DX009 (ip), vehicle: saline) is 105 % of control. Besides, the T/C is, setting by setting: (dose: 15.0 mg/kg/injection, schedule: Q01DX005 (ip), vehicle: saline with Tween-80) 100 % of control; (dose: 30.0 mg/kg/injection, schedule: Q01DX005 (ip), vehicle: saline with Tween-80) 94 % of control; under setting [1], 93 % of control and 100 % of control; under setting [2], 93 % of control.
Take `OC1(c2ccccc2)CN(Cc2ccccc2)CC(c2ccccc2)O1` (configuration not stated): the T/C was 98 % of control under setting [7]; 100 % of control under setting [8]; 106 % of control (dose: 400.0 mg/kg/injection, schedule: Q01DX009 (ip), vehicle: saline with Tween-80).
Consider `O=C(NC(=O)C(F)(F)F)Nc1cccc(C(F)(F)F)c1`, for which the T/C is 114 % of control under setting [6], 94 % of control under setting [7] and 94 % of control under setting [8].
On to `CCOC(=O)C(N)CSC(c1ccccc1)(c1ccccc1)c1ccccc1` (configuration not stated), for which the T/C by setting is: (dose: 12.5 mg/kg/injection, schedule: Q01DX009 (ip), vehicle: water) 117 % of control and 98 % of control; (dose: 25.0 mg/kg/injection, schedule: Q01DX009 (oral), vehicle: water) 114 % of control; (dose: 50.0 mg/kg/injection, schedule: Q01DX009 (ip), vehicle: water) 155 % of control; (dose: 200.0 mg/kg/injection, schedule: Q04DX003 (ip), vehicle: saline) 180 % of control.
Turning to `Cc1noc2c1NC(=O)OC(C)(C)C2`, the T/C (dose: 12.5 mg/kg/injection, schedule: Q01DX005 (ip), vehicle: Klucel (hydroxypropylcellulose) (HPC)) was 102 % of control; the T/C under setting [9] was 105 % of control; the T/C under setting [10] is 100 % of control; the T/C under setting [11] is 104 % of control; the T/C under setting [12] is 101 % of control.
In the case of `CC(NC(=O)OCc1ccccc1)C(=O)NC(C(=O)O)C(C)O` (configuration not stated), the T/C runs as follows: under setting [10], 98 % of control; under setting [11], 99 % of control; under setting [12], 96 % of control.
